Assay results reported in patent publication US8076352B2, “Administration of carboline derivatives useful in the treatment of cancer and other diseases” (PTC Therapeutics, Inc., priority 2004, dated 2011).

Test system: hypoxia-inducible endogenous VEGF expression in HeLa cells
Experiment: Hypoxia-inducible endogenous VEGF expression, VEGF ELISA of conditioned media (dose-response EC50)
Type: cell-based
Conditions: HeLa cells under hypoxic conditions
In short: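 Secreted VEGF was quantified by ELISA against a per-assay standard curve after HeLa cells spent 24-48 h in 1% O2, 5% CO2, N2 balance with or without compound. Across a series of, e.g., seven concentrations, percentage inhibition (max 100%, min 0%) gave EC50 and CC50 values.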

SMILES | EC50 [µM]
CS(=O)(=O)c1ccc(C2c3[nH]c4ccc(Cl)cc4c3CCN2C(=O)N2CCOCC2)cc1 (stereo not shown) [Compound 361] | 0.008 to 0.04

Same assay, conditions: Homo sapiens, HeLa cells under hypoxic conditions

EC50 [µM] | SMILES
> 1 | COc1ccc(C2c3[nH]c4ccccc4c3CCN2C(=O)Nc2ccccc2)cc1 (stereo not shown) [Compound 302]
> 1 | COc1ccc(C2c3[nH]c4ccccc4c3CCN2C(=O)Nc2ccc(C(C)C)cc2)cc1 (stereo not shown) [Compound 304]
> 1 | COc1ccc(C2c3[nH]c4ccccc4c3CCN2C(=O)NC(C)C)cc1 (stereo not shown) [Compound 306]
> 1 | CCNC(=O)N1CCc2c([nH]c3ccccc23)C1c1ccc(OC)cc1 (stereo not shown) [Compound 307]
> 1 | COc1ccc(C2c3[nH]c4ccccc4c3CCN2C(=S)Nc2cccc(F)c2)cc1 (stereo not shown) [Compound 308]
> 1 | c1ccc(COc2ccc3[nH]c4c(c3c2)CCNC4c2ccoc2)cc1 (stereo not shown) [Compound 311]
> 1 | COc1ccc(C2c3[nH]c4ccccc4c3CCN2C(=S)NC2CCCCC2)cc1 (stereo not shown) [Compound 312]
> 1 | COC(=O)c1cccc(NC(=S)N2CCc3c([nH]c4ccccc34)C2c2ccc(OC)cc2)c1 (stereo not shown) [Compound 316]
> 1 | COc1ccc(C2c3[nH]c4ccccc4c3CCN2C(=S)Nc2ccc(C)cc2)cc1 (stereo not shown) [Compound 317]
> 1 | COc1ccc(C2c3[nH]c4ccc(Br)cc4c3CCN2c2ncccn2)cc1 (stereo not shown) [Compound 329]
> 1 | CC(C)c1ccc(C2c3[nH]c4ccc(Cl)cc4c3CCN2C(=O)OCCF)cc1 (stereo not shown) [Compound 330]
0.2 to 1 | COc1ccc(C2c3[nH]c4ccc(Cl)cc4c3CCN2C(=O)N2CCCC2)cc1 (stereo not shown) [Compound 333]
> 1 | COc1ccc(C2c3[nH]c4ccc(Cl)cc4c3CCN2C(=O)N2CCOCC2)cc1 (stereo not shown) [Compound 334]
0.2 to 1 | CCC(C)NC(=S)N1CCc2c([nH]c3ccc(Cl)cc23)C1c1ccc(C(C)C)cc1 (stereo not shown) [Compound 336]
0.2 to 1 | Cc1ccc(NC(=S)N2CCc3c([nH]c4ccc(Cl)cc34)C2c2ccc(C(C)C)cc2)cc1 (stereo not shown) [Compound 338]
> 1 | CCN(CC)C(=O)N1CCc2c([nH]c3ccc(Cl)cc23)C1c1ccc(OC)cc1 (stereo not shown) [Compound 339]
> 1 | COc1ccc(C2c3[nH]c4ccc(Cl)cc4c3CCN2C(=O)N(C)c2ccccc2)cc1 (stereo not shown) [Compound 340]
0.04 to 0.2 | COc1ccc(C2c3[nH]c4ccc(C)cc4c3CCN2C(=O)Oc2ccc(Cl)cc2)cc1 (stereo not shown) [Compound 341]
0.04 to 0.2 | COc1ccc(C2c3[nH]c4ccc(C)cc4c3CCN2c2ncccn2)cc1 (stereo not shown) [Compound 342]
> 1 | COc1ccc(C2c3[nH]c4ccc(C)cc4c3CCN2c2cnccn2)cc1 (stereo not shown) [Compound 343]
0.008 to 0.04 | Cc1ccc2[nH]c3c(c2c1)CCN(C(=O)Oc1ccc(Cl)cc1)C3c1ccc(C(C)C)cc1 (stereo not shown) [Compound 344]
0.008 to 0.04 | O=C(Oc1ccc(Cl)cc1)N1CCc2c([nH]c3ccc(Cl)cc23)C1c1ccc(S(=O)(=O)N2CCOCC2)cc1 (stereo not shown) [Compound 346]
< 0.008 | Cc1ccc(C2c3[nH]c4ccc(Cl)cc4c3CCN2C(=O)Oc2ccc(Cl)cc2)cc1 (stereo not shown) [Compound 347]

EC50 [µM] | SMILES
< 0.008 | CC(C)c1ccc(C2c3[nH]c4ccc(Cl)cc4c3CCN2C(=O)Oc2ccc(Cl)cc2)cc1 (stereo not shown) [Compound 348]
0.008 to 0.04 | O=C(Oc1ccc(Cl)cc1)N1CCc2c([nH]c3ccc(Cl)cc23)C1c1ccc2c(c1)OCO2 (stereo not shown) [Compound 349]
< 0.008 | N#Cc1ccc(C2c3[nH]c4ccc(Cl)cc4c3CCN2C(=O)Oc2ccc(Cl)cc2)cc1 (stereo not shown) [Compound 350]
0.008 to 0.04 | O=C(Oc1ccc(Cl)cc1)N1CCc2c([nH]c3ccc(Cl)cc23)C1c1ccc(Cl)cc1 (stereo not shown) [Compound 351]
0.008 to 0.04 | CC(C)c1ccc(C2c3[nH]c4ccc(Cl)cc4c3CCN2c2ncccn2)cc1 (stereo not shown) [Compound 352]
< 0.008 | Cc1ccc(C2c3[nH]c4ccc(Br)cc4c3CCN2C(=O)Oc2ccc(Cl)cc2)cc1 (stereo not shown) [Compound 353]
< 0.008 | CC(C)c1ccc(C2c3[nH]c4ccc(Br)cc4c3CCN2C(=O)Oc2ccc(Cl)cc2)cc1 (stereo not shown) [Compound 354]
< 0.008 | COc1ccc(C2c3[nH]c4ccc(Br)cc4c3CCN2C(=O)Oc2ccc(Cl)cc2)cc1 (stereo not shown) [Compound 355]
0.04 to 0.2 | CCOC(=O)N1CCc2c([nH]c3ccc(Cl)cc23)C1c1ccc(S(C)(=O)=O)cc1 (stereo not shown) [Compound 358]
0.04 to 0.2 | COc1ccc(OC(=O)N2CCc3c([nH]c4ccc(Cl)cc34)C2c2ccc(S(C)(=O)=O)cc2)cc1 (stereo not shown) [Compound 359]
0.008 to 0.04 | CS(=O)(=O)c1ccc(C2c3[nH]c4ccc(Cl)cc4c3CCN2C(=O)Oc2ccc(Cl)cc2)cc1 (stereo not shown) [Compound 360]
0.04 to 0.2 | CCOC(=O)COc1ccc(C2c3[nH]c4ccc(Cl)cc4c3CCN2C(=O)OCC)cc1 (stereo not shown) [Compound 365]
> 1 | O=C(COc1ccc(C2c3[nH]c4ccc(Cl)cc4c3CCN2C(=O)Oc2ccccc2)cc1)Oc1ccccc1 (stereo not shown) [Compound 366]
0.008 to 0.04 | COc1ccc(C2c3[nH]c4ccc(Cl)cc4c3CCN2C(=O)CCCl)cc1 (stereo not shown) [Compound 367]
0.2 to 1 | COc1ccc(C2c3[nH]c4ccc(Cl)cc4c3CCN2C(=O)Cc2ccccc2)cc1 (stereo not shown) [Compound 368]
0.2 to 1 | COC(=O)CCC(=O)N1CCc2c([nH]c3ccc(Cl)cc23)C1c1ccc(OC)cc1 (stereo not shown) [Compound 369]
< 0.008 | COc1ccc(C2c3[nH]c4ccc(Cl)cc4c3CCN2C(=O)C(C)OC(C)=O)cc1 (stereo not shown) [Compound 370]
0.04 to 0.2 | COc1ccc(C2c3[nH]c4ccc(Cl)cc4c3CCN2C(=O)c2ccc(F)c(Cl)c2)cc1 (stereo not shown) [Compound 371]
> 1 | COc1ccc(C2c3[nH]c4ccc(Cl)cc4c3CCN2S(=O)(=O)c2ccccc2Cl)cc1 (stereo not shown) [Compound 372]
0.04 to 0.2 | COc1ccc(C2c3[nH]c4ccc(Cl)cc4c3CCN2C(=O)c2ccc(F)c(F)c2F)cc1 (stereo not shown) [Compound 373]
0.04 to 0.2 | COc1ccc(C2c3[nH]c4ccc(Cl)cc4c3CCN2C(=O)Cc2cccs2)cc1 (stereo not shown) [Compound 374]
0.2 to 1 | COc1ccc(C2c3[nH]c4ccc(Cl)cc4c3CCN2C(=O)C(C)Oc2ccccc2)cc1 (stereo not shown) [Compound 375]
0.2 to 1 | COCC(=O)N1CCc2c([nH]c3ccc(Cl)cc23)C1c1ccc(OC)cc1 (stereo not shown) [Compound 376]

Further lines, the compound ahead of its results:

SMILES | EC50 [µM]
CCC1NCCc2c1[nH]c1ccc(Cl)cc21 (stereo not shown) [Compound 298] | > 1
FC(F)(F)c1cccc(C2NCCc3c2[nH]c2ccc(Cl)cc32)c1 (stereo not shown) [Compound 299] | > 1
COc1ccc(C2NC(C(=O)O)Cc3c2[nH]c2ccc(Br)cc32)cc1 (stereo not shown) [Compound 300] | > 1
COc1ccccc1C1NCCc2c1[nH]c1ccc(Cl)cc21 (stereo not shown) [Compound 301] | > 1
c1ccc(COc2ccc3[nH]c4c(c3c2)CCNC4c2ccccc2)cc1 (stereo not shown) [Compound 303] | > 1
Cc1cccc2c3c([nH]c12)C(c1cccc(Br)c1)NCC3 (stereo not shown) [Compound 305] | > 1
CS(=O)(=O)c1ccc(C2c3[nH]c4ccc(Cl)cc4c3CCN2C(=O)N2CCOCC2)cc1 (stereo not shown) [Compound 309] | 0.008 to 0.04
Clc1ccc2[nH]c3c(c2c1)CCNC3c1cccs1 (stereo not shown) [Compound 310] | > 1
COc1ccc(C2NCCc3c2[nH]c2ccccc32)cc1 (stereo not shown) [Compound 313] | > 1
O=C(O)C1Cc2c([nH]c3ccccc23)C(c2ccccc2)N1 (stereo not shown) [Compound 314] | > 1
COc1ccc(C2NCCc3c2[nH]c2ccc(F)cc32)cc1 (stereo not shown) [Compound 315] | > 1
COc1cccc(C2NC(CO)Cc3c2[nH]c2ccccc32)c1 (stereo not shown) [Compound 318] | > 1
Clc1ccc2[nH]c3c(c2c1)CCNC3c1cccnc1 (stereo not shown) [Compound 319] | > 1
c1ccc(COc2ccc3[nH]c4c(c3c2)CCNC4c2cccnc2)cc1 (stereo not shown) [Compound 320] | > 1
COc1ccc2c3c([nH]c2c1)C(c1ccccc1)NCC3 (stereo not shown) [Compound 321] | > 1
COc1ccc2[nH]c3c(c2c1)CCNC3c1ccccc1 (stereo not shown) [Compound 322] | > 1
COc1ccc(C2NCCc3c2[nH]c2ccc(OC)cc32)cc1 (stereo not shown) [Compound 323] | > 1
COc1ccc2[nH]c3c(c2c1)CCNC3c1cccnc1 (stereo not shown) [Compound 324] | > 1

SMILES | EC50 [µM]
Cc1cccc2c3c([nH]c12)C(c1ccccc1)NCC3 (stereo not shown) [Compound 326] | > 1
COc1ccc(C2NCCc3c2[nH]c2ccc(Cl)cc32)cc1OC (stereo not shown) [Compound 327] | > 1
Clc1ccc2[nH]c3c(c2c1)CCN(c1ncccn1)C3c1ccc2c(c1)OCO2 (stereo not shown) [Compound 328] | > 1
O=C(Oc1ccc(Cl)cc1)N1CCc2c([nH]c3ccc(Cl)cc23)C1c1ccc(OCCN2CCOCC2)cc1 (stereo not shown) [Compound 331] | > 1
CC(C)c1ccc(C2c3[nH]c4ccc(Cl)cc4c3CCN2C(=S)NC2CCCCC2)cc1 (stereo not shown) [Compound 335] | 0.04 to 0.2
CCCCCNC(=S)N1CCc2c([nH]c3ccc(Cl)cc23)C1c1ccc(C(C)C)cc1 (stereo not shown) [Compound 337] | 0.04 to 0.2
Cc1ccc2[nH]c3c(c2c1)CCN(c1ncccn1)C3c1ccc(C(C)C)cc1 (stereo not shown) [Compound 345] | 0.008 to 0.04
Clc1ccc2[nH]c3c(c2c1)CCN(c1ncccn1)C3c1ccc(OCCN2CCOCC2)cc1 (stereo not shown) [Compound 356] | 0.2 to 1
Brc1ccc2[nH]c3c(c2c1)CCN(c1ncccn1)C3c1ccc(OCCN2CCOCC2)cc1 (stereo not shown) [Compound 357] | 0.04 to 0.2
CC(C)(C)OC(=O)N1CCc2c([nH]c3ccc(Cl)cc23)C1c1ccc2c(c1)OCO2 (stereo not shown) [Compound 362] | < 0.008
Clc1ccc2[nH]c3c(c2c1)CCNC3c1ccc(OCCN2CCOCC2)cc1 (stereo not shown) [Compound 363] | > 1
COc1cccc(C2NCCc3c2[nH]c2ccc(Br)cc32)c1O (stereo not shown) [Compound 377] | > 1
Oc1ccccc1C1NCCc2c1[nH]c1ccc(Br)cc21 (stereo not shown) [Compound 378] | > 1
COc1ccc(C2NCCc3c2[nH]c2ccc(Br)cc32)cc1O (stereo not shown) [Compound 379] | > 1
Oc1c(F)cccc1C1NCCc2c1[nH]c1ccc(Br)cc21 (stereo not shown) [Compound 380] | > 1
Oc1ccc(Cl)cc1C1NCCc2c1[nH]c1ccc(Br)cc21 (stereo not shown) [Compound 381] | > 1
Oc1ccc(Br)cc1C1NCCc2c1[nH]c1ccc(Br)cc21 (stereo not shown) [Compound 382] | > 1
